Where two headings read alike, the source gives them in different places.
Columns and labels:
FLICE (Mch5, Caspase 8) = FLICE (Mch5, Caspase 8) (Homo sapiens, UniProt Q14790); assay: Caspase inhibition, photometric, Ac-DEVD-pNA; format: biochemical
Experimental: (§1) Inhibition constants were measured photometrically for YAMA (caspase 3), Lap3 (caspase 7), FLICE (caspase 8), Mch2 (caspase 6) and granzyme B. The buffer used for all enzymes consisted of 50 mM Hepes, 100 mM sodium chloride, 10% (v/v) sucrose, 0.1% (v/v) CHAPS and 10 mM dithiothreitol (DTT). In the case of granzyme B, only 1 mM DTT was used.
(§2) Enzymes were incubated at 37° C. for 10 minutes in 100 μL well plates and synthetic substrate and inhibitor were added simultaneously. Final substrate concentration was 20 μM in all cases. The synthetic substrate Ac-DEVD-pNA was used for all caspases and Succ-AAPD-pNA was used for granzyme B. The appearance of product was monitored over 10 minutes at 410 nm using a Spectromax 340 and IC50 curves were calculated from the initial slopes at varying inhibitor concentrations and inhibition constants were calculated.

Lap3 (Mch3, Caspase 7) = target: T1, Lap3 (Mch3, Caspase 7) (Homo sapiens, UniProt P55210); assay: Caspase inhibition, photometric, Ac-DEVD-pNA; format: biochemical; conditions: 20 μM Ac-DEVD-pNA, 37° C.
T1 sequence (P55210 24-198 limits assumed): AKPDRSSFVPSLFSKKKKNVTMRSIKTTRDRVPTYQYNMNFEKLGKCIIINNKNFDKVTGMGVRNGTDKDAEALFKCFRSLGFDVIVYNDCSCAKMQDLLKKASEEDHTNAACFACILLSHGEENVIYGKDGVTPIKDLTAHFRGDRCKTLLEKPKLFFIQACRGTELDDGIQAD
T1 sequence (P55210 207-303 limits assumed): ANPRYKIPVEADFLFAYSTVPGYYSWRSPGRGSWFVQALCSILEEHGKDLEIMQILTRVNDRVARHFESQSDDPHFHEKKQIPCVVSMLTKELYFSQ
Experimental: as §1, §2

Mch2 (Caspase 6) = target: T2, Mch2 (Caspase 6) (Homo sapiens, UniProt P55212); assay: Caspase inhibition, photometric, Ac-DEVD-pNA; format: biochemical; conditions: 20 μM Ac-DEVD-pNA, 37° C.
T2 sequence (P55212 24-179 limits assumed): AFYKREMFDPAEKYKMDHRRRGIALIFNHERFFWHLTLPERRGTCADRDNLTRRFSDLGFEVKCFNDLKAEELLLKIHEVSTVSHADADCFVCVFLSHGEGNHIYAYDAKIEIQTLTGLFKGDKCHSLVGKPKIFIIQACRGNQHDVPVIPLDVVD
T2 sequence (P55212 194-293 limits assumed): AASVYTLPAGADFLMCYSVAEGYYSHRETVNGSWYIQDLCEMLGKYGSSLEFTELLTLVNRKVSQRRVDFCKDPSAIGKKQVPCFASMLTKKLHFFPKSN
Experimental: as §1, §2

YAMA (CPP32, Caspase 3) = target: T3, YAMA (CPP32, Caspase 3) (Homo sapiens, UniProt P42574); assay: Caspase inhibition, photometric, Ac-DEVD-pNA; format: biochemical; conditions: 20 μM Ac-DEVD-pNA, 37° C.
T3 sequence (P42574 29-175 limits assumed): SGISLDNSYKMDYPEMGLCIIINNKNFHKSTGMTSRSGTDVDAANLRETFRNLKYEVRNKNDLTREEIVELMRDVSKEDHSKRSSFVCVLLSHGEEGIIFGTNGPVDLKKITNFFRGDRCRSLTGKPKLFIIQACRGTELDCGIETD
T3 sequence (P42574 176-277 limits assumed): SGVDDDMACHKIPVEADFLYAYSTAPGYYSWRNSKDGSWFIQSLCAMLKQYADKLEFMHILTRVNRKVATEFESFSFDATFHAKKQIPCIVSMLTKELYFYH
Experimental: as §1, §2

ICE (Caspase 1) [1] = target: T4, ICE (Caspase 1) (Homo sapiens, UniProt P29466); assay: THP-1 assay: IL-1β release after LPS stimulation (assay for ICE inhibition); format: cell-based; conditions: for IC50: LPS 1 ug/ml, 4 hr, ELISA, read-out: IC50 of reduction of IL1β release from THP1 cell line
T4 construct: endogenous in cells; host or cells: THP-1
T4 sequence (P29466 120-297 limits assumed): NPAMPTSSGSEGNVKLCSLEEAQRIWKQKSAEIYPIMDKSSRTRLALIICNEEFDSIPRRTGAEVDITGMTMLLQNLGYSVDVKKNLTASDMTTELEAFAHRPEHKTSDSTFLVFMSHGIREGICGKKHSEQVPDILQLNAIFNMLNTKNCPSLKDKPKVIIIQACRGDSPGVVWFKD
T4 sequence (P29466 317-404 limits assumed): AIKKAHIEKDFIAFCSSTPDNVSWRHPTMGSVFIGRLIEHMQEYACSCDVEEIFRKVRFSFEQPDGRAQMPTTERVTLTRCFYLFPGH
Description: (§3) To examine the ability of the caspase family inhibitors, CQ-0010 and CQ-0011, to inhibit human IL-1β production, two different assays were employed. In the first, the human monocytic cell line, THP-1, was stimulated with E. coli lipopolysaccharide (LPS serotype 0127-88; Sigma Chemical Co., St. Louis, Mo.) in the presence and absence of the inhibitors. This cell line synthesizes and secretes IL-1β and TNFα as well as other cytokines upon LPS stimulation. The second assay used freshly-isolated human whole blood similarly stimulated with LPS.
(§4) Two×10^6 THP-1 cells were added to 24 well plates in 1 ml RPMI supplemented with 1% FCS, glutamine and 5×10^-5 M mercaptoethanol. Two-fold serial dilutions of the inhibitors, CQ-0010, CQ-0011 and the commmercially available Ac-YVAD-CHO (Biomol Research Laboratories Inc., Plymouth Meeting, Pa.), were preincubated with the cells for 15 min at 37° C. LPS was then added to a final concentration of 1 ug/ml and the plates incubated for 4 hr at 37° C. All incubations were carried out in a humidified incubator with 5% CO2 in air.
(§5) Supernatants were harvested after 4 hr and assayed by ELISA for the presence of TNFα and IL-1β using commercially available kits (PerSeptive Biosystems, Framingham, Mass. and R&D Systems, Minneapolis, Minn., respectively).

ICE (Caspase 1) [2] = target: T4, ICE (Caspase 1); assay: Human whole blood assay: IL-1β release after LPS stimulation (assay for ICE inhibition); format: cell-based; conditions: LPS 10 or 100 ug/ml, 4 hr, ELISA, read-out: IC50 of reduction of IL1β release in whole blood assay
Description: as §3
Heparinized whole blood (19.7 U heparin per ml) from healthy volunteers was collected and dispensed into 12×75 mm polystyrene tubes (0.25 ml per tube). The inhibitors, CQ-0010, CQ-0011 and Ac-YVAD-CHO were dissolved in DMSO, then diluted and added to the tubes in 0.25 ml and preincubated with the blood for 15 min at 37° C. LPS was then added to a final concentration of 10 or 100 ug/ml.
The tubes were loosely-capped and incubated in a water bath for 4 hr at 37° C. after which they were immersed briefly in an ice-water bath. Supernatants were harvested by centrifngation and stored at -70° C. The presence of TNFα and IL-1β was detected by commercially-available ELISA kits.

granzyme B = granzyme B (Homo sapiens, UniProt P10144); assay: Granzyme B inhibition, photometric, Succ-AAPD-pNA; format: biochemical; conditions: 20 μM Succ-AAPD-pNA, 1 mM DTT
Chain of granzyme B (P10144 21-247, species assumed): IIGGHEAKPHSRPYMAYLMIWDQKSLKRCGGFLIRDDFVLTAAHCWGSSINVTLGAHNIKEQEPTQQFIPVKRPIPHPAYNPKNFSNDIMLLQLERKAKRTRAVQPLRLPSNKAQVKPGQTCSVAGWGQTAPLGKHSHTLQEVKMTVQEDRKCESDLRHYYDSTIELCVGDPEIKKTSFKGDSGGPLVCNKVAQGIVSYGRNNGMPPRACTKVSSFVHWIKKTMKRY
Experimental: as §1, §2

TNFα = assay: THP-1 assay: TNFα levels after LPS stimulation; format: cell-based, human; conditions: THP-1 cells, results not shown
Description: as §3, §4, §5

papain = target: T5, papain (Carica papaya, UniProt P00784); assay: Papain inhibition, fluorometric assay with Cbz-Phe-Arg-NHMec; format: biochemical; conditions: IC50 at substrate << Km taken as Ki; pH 6.8
T5 construct: purchased Sigma (St. Louis, Mo.)
T5 sequence (P00784 134-345): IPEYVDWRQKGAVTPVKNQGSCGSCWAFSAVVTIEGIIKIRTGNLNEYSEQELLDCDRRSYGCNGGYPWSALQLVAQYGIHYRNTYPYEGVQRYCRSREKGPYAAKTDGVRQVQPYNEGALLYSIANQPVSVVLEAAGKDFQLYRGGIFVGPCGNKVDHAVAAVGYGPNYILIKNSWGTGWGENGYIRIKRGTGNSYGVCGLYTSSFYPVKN
Description: (§6) The enzyme cathepsin B (E.C. 3.4.22.01) was obtained from Calbiochem (San Diego, Calif.); cathepsin L (E.C. 3.4.22.15) from Athens Research and Technology Inc. (Athens,Ga.); and papain (E.C. 3.4.22.02) from Sigma (St. Louis, Mo.).
(§7) Cbz-Phe-Arg-NHMec (--NHMec: 7-(4-methyl)coumarylamide) was obtained from BachemCalifornia, Inc. (Torrance, Calif.). All other reagents were obtained from Sigma.
(§8) The enzymes used in enzyme assays with methylcoumarylamides were activated as described elsewhere (Barret, et al., Methods Enzymol. 80:535-561 (1981); Bromme, et al., Biochem. J, 264: 475-481 (1989). Cathepsin L was assayed in 0.34 M sodium acetate buffer, pH 5.5, containing 0.1% (v/v) Brij 35, 2.5 mM dithiothreitol (DTT) and 5 mM Na2 -EDTA. Cathepsin B was assayed under the same conditions, except that the buffer was adjusted to pH 6. Papain was assayed in 50 mM sodium phosphate buffer, pH 6.8, containing 0.2 M sodium chloride, 2 mM DTT, 1 mM Na2 -EDTA and 0.025% Brij 35 (v/v).
(§9) Initial velocities of enzymatic reactions were measured spectrofluorometrically (λex =370 nm, λem 460 nm) with a Quanta Master QM1 (Photon Technologies International, South Brunswick, N.J.). Stock solutions of the enzymes were diluted into the buffer, equilibrated at room temperature, and preincubated without or with increasing concentrations of inhibitors. The reactions were started by addition of substrate. A total of 4 to 8 inhibitor concentrations were used to determine IC50 values. In all cases the substrate concentrations were much smaller than the Km value, and the IC50 values measured approximated the Ki directly (Cheng, et al., Biochemical Pharmacology, 22:3099-3108 (1973)).

cathepsin B = target: T6, cathepsin B (Homo sapiens, UniProt P07858); assay: Cathepsin B inhibition, fluorometric assay with Cbz-Phe-Arg-NHMec; format: biochemical; conditions: human enzyme; IC50 at substrate << Km taken as Ki; pH 6
T6 construct: purchased Calbiochem (San Diego, Calif.)
Description: as §6, §7, §8, §9

cathepsin L = target: T7, cathepsin L (Homo sapiens, UniProt P07711); assay: Cathepsin L inhibition, fluorometric assay with Cbz-Phe-Arg-NHMec; format: biochemical; conditions: human enzyme; IC50 at substrate << Km taken as Ki; pH 5.5
T7 construct: purchased Athens Research and Technology Inc. (Athens,Ga.)
T7 sequence (P07711 114-333): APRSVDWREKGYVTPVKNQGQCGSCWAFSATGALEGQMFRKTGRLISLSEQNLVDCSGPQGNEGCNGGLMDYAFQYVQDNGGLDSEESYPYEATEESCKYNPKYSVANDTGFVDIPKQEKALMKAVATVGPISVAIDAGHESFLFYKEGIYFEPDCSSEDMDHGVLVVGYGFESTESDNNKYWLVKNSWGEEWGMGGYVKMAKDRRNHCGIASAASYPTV
Description: as §6, §7, §8, §9

gingipain R (RGP) = assay: Gingipain assay, BAPNA cleavage at 405 nm; format: biochemical, human; conditions: 2 mM BAPNA, cell marked (IC50) in the Ki [nM] table
Experimental: All assays were carried out in a 96 well microtiter plate reader and cleavage of BAPNA (Nα-benzoyl-DL-arginine-p-nitroanilide hydrochloride) was detected at 405 nm.
All assays were performed as follows: 180 μl assay buffer (50 mM Tris, […], at pH 7.6) was mixed with 10 μl gingipain R (RGP). The mixture was incubated for 5 min. at room temperature to reduce and activate RGP. 10 μl of each inhibitor were added at various concentrations. These mixtures were incubated for 10 min. at room temperature to allow the inhibitors to complex with RGP. 50 μl of 10 mM BAPNA substrate was added. A two minute assay was performed with a final volume of 250 μl, and a final BAPNA concentration of 2 mM.
For this reason, two minute assays were performed whereby the Vmax in mOD/min change in absorbance at 405 nm was used as the initial velocity reading. In order to titrate RGP against leupeptin and to determine % activity, these velocity readings were transformed on a percent scale where the 100% control contained no inhibitor. The initial velocity values were also entered into Graphpad Prism regression program along with the various inhibitor concentrations to obtain the IC50 values. All data represents the minimum of duplicates, and at times triplicate sets.

[3] = 20 μM Ac-DEVD-pNA, 37° C., read-out: Ki, FLICE (Mch5, Caspase 8)

Chain of FLICE (Mch5, Caspase 8) (Q14790 217-374 limits assumed, species assumed): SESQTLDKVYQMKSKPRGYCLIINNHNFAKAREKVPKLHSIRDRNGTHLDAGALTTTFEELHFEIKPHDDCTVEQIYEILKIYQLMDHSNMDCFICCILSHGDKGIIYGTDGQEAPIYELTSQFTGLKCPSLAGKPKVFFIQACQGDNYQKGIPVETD
Chain of FLICE (Mch5, Caspase 8) (Q14790 385-479 limits assumed, species assumed): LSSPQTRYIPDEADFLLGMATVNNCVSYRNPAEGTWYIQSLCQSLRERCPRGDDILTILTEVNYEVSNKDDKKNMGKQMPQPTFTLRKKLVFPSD

Structure (SMILES): CC(=O)N[C@@H](Cc1ccc(O)cc1)C(=O)N[C@H](C(=O)N[C@@H](C)C(=O)N[C@H](C=O)CC(=O)O)C(C)C [Ac-YVAD-CHO, reference compound]
- Ki (FLICE (Mch5, Caspase 8); [3]): 3700 nM
- Ki, Lap3 (Mch3, Caspase 7) (Lap3 (Mch3, Caspase 7)): Not Active
- Ki (Mch2 (Caspase 6)): 100000 nM
- Ki (YAMA (CPP32, Caspase 3)): 20000 nM
- IC50 (ICE (Caspase 1) [1]): 300 nM
- IC50 (ICE (Caspase 1) [2]): 300 to 500 nM
- Ki, Granzyme (granzyme B): Not Active

Structure (SMILES): CC(=O)N[C@@H](Cc1ccc(O)cc1)C(=O)N[C@H](C(=O)N[C@@H](C)C(=O)NC(CC(=O)O)C(=O)c1nnc(-c2ccccc2)o1)C(C)C (stereo partly drawn) [CQ-0010, Acetyl-L-tyrosinyl-L-valyl-N-[1-[2-[(5-phenyl)-1,3,4-oxadiazolyl]carbonyl]-2-carboxy-ethyl]-L-alanine amide]
- Ki (FLICE (Mch5, Caspase 8); [3]): ≤ 20 nM
- Ki (FLICE (Mch5, Caspase 8); read-out: Ki, FLICE): ≤ 20 nM
- Ki, Lap3 (Mch3, Caspase 7) (Lap3 (Mch3, Caspase 7)): Not Active
- Ki (Mch2 (Caspase 6)): 33000 nM
- Ki (YAMA (CPP32, Caspase 3)): 3300 nM
- IC50 (ICE (Caspase 1) [1]): 300 nM
- inhibition of IL-1β production (ICE (Caspase 1) [1]; at 5 μM, THP-1 cells (FIG. 1)): almost completely inhibiting
- IC50 (ICE (Caspase 1) [2]): 300 to 500 nM
- Ki, Granzyme (granzyme B): Not Active
- effect on levels of TNFα produced (TNFα): no dose-dependent effect

Structure (SMILES): CC(=O)N[C@@H](CC(C)C)C(=O)N[C@@H](CC(C)C)C(=O)N[C@H](C=O)CCCNC(=N)N [Leupeptin, reference compound]
- Ki (papain): 1 ± 0.06 nM
- Ki (cathepsin B): 6.1 ± 1.2 nM
- Ki (cathepsin L): 0.62 ± 0.1 nM
- IC50 (gingipain R (RGP)): 20.8 nM
